Where two headings read alike, the source gives them in different places.
Tests used:
[1] = tested on: human microvascular endothelial cell line (HMEC-1); assay: Cytotoxicity on HMEC-1 cells (MTT); assay type: cell-based; conditions: for IC50: Homo sapiens, cytotoxicity, HMEC-1 cells, MTT; for Selectivity index (SI) range versus HMEC cells: range over L. tropica and L. infantum; for SI L. infantum (IC50 HMEC-1/IC50 L. infantum) / SI L. tropica (IC50 HMEC-1/IC50 L. tropica): selectivity index
[2] = tested on: L. tropica promastigotes; assay: Antileishmanial activity on L. tropica promastigotes (MTT); assay type: cell-based, Leishmania tropica; conditions: for IC50: Leishmania tropica, 72 h, read-out: IC50 (µM) L. tropica; for Antileishmanial activity in words: promastigotes of L. tropica and/or L. infantum
[3] = tested on: monkey kidney (Vero76) cells; assay: Cytotoxicity on Vero-76 cells (crystal violet)
[4] = Cytotoxicity on Vero-76 cells (crystal violet); conditions: monkey, Vero-76 cells
[5] = tested on: L. infantum promastigotes; assay: Antileishmanial activity on L. infantum promastigotes (MTT); assay type: cell-based, Leishmania infantum; conditions: for IC50: Leishmania infantum, 72 h, read-out: IC50 (µM) L. infantum; for Fold more potent than miltefosine against L. infantum, taking the lowest literature IC50 (15 μM): miltefosine IC50 15 μM from literature
[6] = tested on: intramacrophagic amastigote stage of L. infantum; assay: In vitro intracellular amastigote susceptibility assay in THP-1 macrophages; assay type: cell-based, Leishmania infantum
Protocol: (b) In vitro intracellular amastigote susceptibility assays. […] Cell monolayers were then washed and incubated with compounds for 72 h. Slides were fixed with methanol and stained with Giemsa. The percentage of infected macrophages in treated and non-treated cells was determined by light microscopy.

[7] = in vitro; conditions: monkey
[8] = promastigotes, MTT, starred values mean of two experiments
[9] = fold potency versus miltefosine
[10] = percent of amphotericin B potency, calculated for each experiment

SMILES | melting point [°C] | IC50 [1] [µM] | SI L. tropica (IC50 HMEC-1/IC50 L. tropica) [1] | IC50 [2, 8] [µM] | Ratio IC50 miltef./IC50 compd., L. tropica [2, 9] | IC50 amph. B ×100/IC50 compd., L. tropica [2, 10] | SI L. infantum (IC50 Vero76/IC50 L. infantum) ([3]; selectivity index, Vero76) | SI L. tropica (IC50 Vero76/IC50 L. tropica) ([3]; selectivity index, Vero76) | IC50 [4] [µM] | IC50 ([5]; promastigotes, MTT) [µM] | IC50 amph. B ×100/IC50 compd., L. infantum [5, 10] | Ratio IC50 miltef./IC50 compd., L. infantum [5, 9] | also measured
CCCCCCCCCCCc1n(C)c2ccccc2[n+]1CCC.[I-] [Compound 4, 1-Methyl-3-propyl-2-undecyl-1 H-benzimidazol-3-ium iodide] | 140.2 to 145 | 2.01 ± 0.24 | 4.37 | 0.46 | 94.0 | 17.9 | 9.63 | 5.65 | 2.6 | 0.27 ± 0.01 | – | – | Selectivity index (SI) range versus HMEC cells [1]: 2.3–7.4; SI L. infantum (IC50 HMEC-1/IC50 L. infantum) [1]: 7.44; Fold more potent than miltefosine against L. infantum, taking the lowest literature IC50 (15 μM) [5]: 55 fold
CCCCCCCCCCCCCCCc1n(C)c2ccccc2[n+]1C.[I-] [Compound 8, 1,3-Dimethyl-2-pentadecyl-1 H-benzimidazol-3-ium iodide] | 169 to 172 | 0.78 ± 0.06 | 4.10 | 0.19 ± 0.06 | – | – | – | – | 5.8 | 0.34 ± 0.12 | 27.8 | – | Selectivity index (SI) range versus HMEC cells [1]: 2.3–7.4; SI L. infantum (IC50 HMEC-1/IC50 L. infantum) [1]: 2.29; Fold increased potency with respect to miltefosine, amastigotes ([6]; L. infantum amastigotes in THP-1): 3.35 fold; IC50 ([6]; Leishmania infantum, THP-1 macrophages, 72 h, read-out: IC50 against intramacrophagic amastigote stage of L. infantum): 0.313 µM; Fold more potent than miltefosine against L. infantum, taking the lowest literature IC50 (15 μM) [5]: 43 fold
CCCCCCCCCCCCCCCc1nc2ccccc2n1Cc1ccccc1 [Compound 13, 1-Benzyl-2-pentadecyl-1H-benzimidazole] | 60.7 to 61.8 | > 47 | – | > 11.9 | – | – | – | – | – | > 11.9 | – | – | Antileishmanial activity in words [2]: inactive
CCCCCCCCCCCCCCCc1n(C)c2ccccc2[n+]1Cc1ccccc1.[Cl-] [Compound 14, 3-Benzyl-1-methyl-2-pentadecyl-1 H-benzimidazol-3-ium chloride] | 215.7 to 219.3 | 0.91 ± 0.19 | 1.86 | 0.49 | 88.3 | 16.7 | – | – | – | 0.64 ± 0.01 | 24.4 | 48.8 | SI L. infantum (IC50 HMEC-1/IC50 L. infantum) [1]: 1.42
CCCCCCCCCCCCCCCc1n(Cc2ccccc2)c2ccccc2[n+]1Cc1ccccc1.[Cl-] [Compound 15, 1,3-Dibenzyl-2-pentadecyl-1 H-benzimidazol-3-ium chloride] | 214.9 to 216.3 | 0.94 ± 0.17 | 0.60 | 1.61 ± 0.15 | 26.9 | 5.1 | – | – | – | 3.26 ± 0.8 | 2.9 | 9.6 | SI L. infantum (IC50 HMEC-1/IC50 L. infantum) [1]: 0.29
CCCC(CCC)c1nc2ccccc2[nH]1 [Compound 18, 2-(Heptan-4-yl)-1 H-benzimidazole] | 224.7 to 225.8 | 65.1 ± 12.2 | 5.87 | 11.1 ± 2.73 | 3.9 | 1.07 | – | – | – | > 39.6 | – | – | –
COc1ccc(-c2nc3cc(C(F)(F)F)ccc3n2CCN(C)C)cc1 [Compound 26] | – | – | – | 29.6 ± 0.3 | 1.5 | 0.60 | – | >3.37 | > 100 | > 55 | – | – | Antileishmanial activity in words [2]: moderately active
CCN(CC)CCCn1c(-c2ccc(OC)cc2)nc2cc(C(F)(F)F)ccc21 [Compound 27] | – | – | – | 21.1 ± 5.84 | 2.1 | 0.84 | >3 | >4.74 | > 100 | 32.7 ± 3.92 | 0.64 | 1.0 | Antileishmanial activity in words [2]: moderately active
CC(=O)c1ccc2c(c1)nc(Cc1ccc(Cl)cc1)n2C[C@@H]1CCCN2CCCC[C@H]12 [Compound 30] | – | – | – | 12.1 ± 4.06 | 3.6 | 1.46 | >6.30 | >8.24 | > 100 | 15.9 ± 3.21 | 1.32 | 2.0 | –
O=[N+]([O-])c1ccc2c(c1)nc(Cc1ccccc1)n2C[C@@H]1CCCN2CCCC[C@H]12 [Compound 32] | – | – | – | – | – | – | – | – | – | – | – | – | IC50 amph. B ×100/IC50 compd., L. tropica [2]: 1.43; Ratio IC50 miltef./IC50 compd., L. tropica [2]: 6.0; IC50 [2]: 7.22 ± 3.13 µM; IC50 [7]: 50 µM; SI L. infantum (IC50 Vero76/IC50 L. infantum) [3]: 5.23; SI L. tropica (IC50 Vero76/IC50 L. tropica) [3]: 6.93; IC50 amph. B ×100/IC50 compd., L. infantum [5]: 1.24; Ratio IC50 miltef./IC50 compd., L. infantum [5]: 3.3; IC50 [5]: 9.55 ± 3.11 µM
O=[N+]([O-])c1ccc2c(c1)nc(Cc1ccc(Cl)cc1)n2C[C@@H]1CCCN2CCCC[C@H]12 [Compound 33] | – | – | – | – | – | – | – | – | – | – | – | – | IC50 amph. B ×100/IC50 compd., L. tropica [2]: 2.63; Ratio IC50 miltef./IC50 compd., L. tropica [2]: 11.0; IC50 [2]: 3.92 ± 1.43 µM; IC50 [7]: 68 µM; SI L. infantum (IC50 Vero76/IC50 L. infantum) [3]: 9.97; SI L. tropica (IC50 Vero76/IC50 L. tropica) [3]: 17.35; IC50 amph. B ×100/IC50 compd., L. infantum [5]: 1.73; Ratio IC50 miltef./IC50 compd., L. infantum [5]: 4.6; IC50 [5]: 6.82 ± 1.25 µM
FC(F)(F)c1ccc2c(c1)nc(-c1ccccc1)n2C[C@@H]1CCCN2CCCC[C@H]12 [Compound 35] | – | – | – | 7.31 ± 2.75 | 5.9 | 2.42 | 7.44 | 12.3 | 90 | 12.1 ± 1.82 | 1.73 | 2.6 | –
FC(F)(F)c1ccc2c(c1)nc(-c1ccc(Cl)cc1)n2C[C@@H]1CCCN2CCCC[C@H]12 [Compound 36, N-lupinyl-5-trifluoromethyl-2-(4-chlorophenyl)benzimidazole] | – | – | – | 12.6 ± 4.54 | 3.4 | 0.69 | 1.92 | 1.90 | 24 | 12.5 ± 3.51 | 0.95 | 2.5 | –
Oc1ccc(-c2nc3cc(C(F)(F)F)ccc3n2C[C@@H]2CCCN3CCCC[C@H]23)cc1 [Compound 37] | – | – | – | 13.5 ± 2.21 | 3.2 | 1.31 | 4.49 | 5.76 | 78 | 17.4 ± 1.49 | 1.20 | 1.8 | –
COc1ccc(-c2nc3cc(C(F)(F)F)ccc3n2C[C@@H]2CCCN3CCCC[C@H]23)cc1 [Compound 38] | – | – | – | 6.54 ± 0.18 | 6.6 | 2.71 | 6.68 | 11.47 | 75 | 11.2 ± 1.33 | 1.86 | 2.8 | –

From PMC7011974, “Benzimidazole derivatives endowed with potent antileishmanial activity” (Journal of Enzyme Inhibition and Medicinal Chemistry, 2017)
